According to ChEMBL document CHEMBL1146031, “N-acylated sulfonamide sodium salt: a prodrug of choice for the bifunctional 2-hydroxymethyl-4-(5-phenyl-3-trifluoromethyl-pyrazol-1-yl) benzenesulfonamide class of COX-2 inhibitors” (Bioorg Med Chem Lett, 2006):
Several values for one entry are separate records, joined by “and”; a condition that tells them apart may be missing. Identical values can stand only once. Activity calls are given as the source filed them. The rule behind the calls is not given here.

Key:
[1] = target: Prostaglandin G/H synthase 1 (Ovis aries) (UniProt P05979); experiment: Inhibition of microsomal COX1 at 10 uM
Sequence of Prostaglandin G/H synthase 1 (Ovis aries) (P05979 whole entry, looked up): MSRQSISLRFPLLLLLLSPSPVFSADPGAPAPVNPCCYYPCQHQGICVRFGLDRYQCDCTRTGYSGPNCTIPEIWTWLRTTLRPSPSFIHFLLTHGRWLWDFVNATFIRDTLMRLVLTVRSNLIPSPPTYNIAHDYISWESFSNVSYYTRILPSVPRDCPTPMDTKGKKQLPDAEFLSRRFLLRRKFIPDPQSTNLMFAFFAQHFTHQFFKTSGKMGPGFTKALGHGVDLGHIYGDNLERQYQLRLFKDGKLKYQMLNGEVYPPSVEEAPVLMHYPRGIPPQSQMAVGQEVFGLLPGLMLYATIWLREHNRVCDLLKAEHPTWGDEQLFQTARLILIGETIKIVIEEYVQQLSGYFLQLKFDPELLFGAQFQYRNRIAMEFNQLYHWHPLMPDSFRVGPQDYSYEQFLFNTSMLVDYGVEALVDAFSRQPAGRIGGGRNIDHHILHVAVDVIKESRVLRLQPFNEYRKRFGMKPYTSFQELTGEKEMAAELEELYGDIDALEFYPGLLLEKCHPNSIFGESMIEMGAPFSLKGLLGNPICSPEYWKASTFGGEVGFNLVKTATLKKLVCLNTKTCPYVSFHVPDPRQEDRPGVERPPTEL

[2] = target: T1, Prostaglandin G/H synthase 2 (Homo sapiens) (UniProt P35354); experiment: Inhibition of human recombinant COX2 expressed in sf9 cells infected with baculovirus at 10 uM
T1 sequence (whole entry): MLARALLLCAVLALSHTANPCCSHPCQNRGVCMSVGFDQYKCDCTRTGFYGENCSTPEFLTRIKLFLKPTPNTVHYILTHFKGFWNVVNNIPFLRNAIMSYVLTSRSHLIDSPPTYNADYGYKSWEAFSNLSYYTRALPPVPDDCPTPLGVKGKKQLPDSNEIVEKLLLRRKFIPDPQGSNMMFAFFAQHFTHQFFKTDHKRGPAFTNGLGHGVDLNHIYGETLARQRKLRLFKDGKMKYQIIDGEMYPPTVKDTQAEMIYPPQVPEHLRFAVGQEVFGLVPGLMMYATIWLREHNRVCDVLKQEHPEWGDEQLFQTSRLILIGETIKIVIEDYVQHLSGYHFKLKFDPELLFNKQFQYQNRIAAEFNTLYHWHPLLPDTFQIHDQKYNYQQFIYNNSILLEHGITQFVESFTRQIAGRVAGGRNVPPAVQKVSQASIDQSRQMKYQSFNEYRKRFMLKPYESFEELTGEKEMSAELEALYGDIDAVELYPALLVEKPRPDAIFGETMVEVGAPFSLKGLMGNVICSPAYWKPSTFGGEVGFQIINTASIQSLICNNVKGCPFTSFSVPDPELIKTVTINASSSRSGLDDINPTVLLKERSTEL

[3] = system: Rattus norvegicus; experiment: Anti-inflammatory activity in orally dosed Wistar rat assessed as reduction of carrageenan-induced paw edema; type: functional; settings: po; for Inhibition: 30 mg/kg
[4] = system: Rattus norvegicus; experiment: Anti-inflammatory activity in orally dosed Wistar rat assessed as reduction of carrageenan-induced paw edema at 30 mg/kg, po; type: functional
[5] = AUC in Wistar rat at 100 mg/kg, po; type: ADME, organism-based; design: dose 100 mg/kg, route oral; settings: plasma
[6] = Cmax in Wistar rat at 100 mg/kg, po; type: ADME, organism-based; design: dose 100 mg/kg, route oral; settings: in vivo
[7] = Tmax in Wistar rat at 100 mg/kg, po; type: ADME, organism-based; design: dose 100 mg/kg, route oral; settings: in vivo
[8] = system: Rattus norvegicus; experiment: Anti-inflammatory activity in orally dosed Wistar rat assessed as reduction of carrageenan-induced paw edema at 10 mg/kg, po; type: functional, organism-based; design: dose 10 mg/kg
[9] = system: Rattus norvegicus; experiment: Anti-inflammatory activity in orally dosed Wistar rat assessed as reduction of carrageenan-induced paw edema at 1 mg/kg, po; type: functional, organism-based; design: dose 1 mg/kg
[10] = system: Rattus norvegicus; experiment: Anti-inflammatory activity in orally dosed Wistar rat assessed as reduction of carrageenan-induced paw edema at 3 mg/kg, po; type: functional, organism-based; design: dose 3 mg/kg
[11] = Terminal half life in Wistar rat at 100 mg/kg, po; type: ADME, organism-based; design: dose 100 mg/kg, route oral; settings: in vivo
[12] = AUC (0-infinity) in Wistar rat at 100 mg/kg, po; type: ADME, organism-based; design: time infinity, dose 100 mg/kg, route oral; settings: plasma
[13] = system: Rattus norvegicus; experiment: Anti-inflammatory activity in orally dosed Wistar rat assessed as reduction of carrageenan-induced paw edema at 0.3 mg/kg, po; type: functional

inhibition [1] | inhibition [2] | SMILES | ED50 [3] | inhibition at 30 mg/kg [4] | further results
0% | 2% and 12% | CCC(=O)NS(=O)(=O)c1ccc(-n2nc(C(F)(F)F)cc2-c2ccc3c(c2)CCO3)cc1COC(=O)CC [listing 1 of 2 here] |  |  | 
 |  | NS(=O)(=O)c1ccc(-n2nc(C(F)(F)F)cc2-c2ccc3c(c2)CCC3)cc1CO | 23.5 mg/kg |  | 
0% | 2% | CCCC(=O)[N-]S(=O)(=O)c1ccc(-n2nc(C(F)(F)F)cc2-c2ccc(C)cc2)cc1.[Na+] | 6.64 mg/kg |  | 
0% | 65% | CCC(=O)OCc1cc(-n2nc(C(F)(F)F)cc2-c2ccc(Br)cc2)ccc1S(N)(=O)=O | 17 mg/kg |  | 
 |  | CCC(=O)NS(=O)(=O)c1ccc(-n2nc(C(F)(F)F)cc2-c2ccc3c(c2)CCO3)cc1COC(=O)CC [listing 2 of 2 here] |  | 25% | 
 |  | COc1ccc(-c2cc(C(F)F)nn2-c2ccc(S(N)(=O)=O)c(CO)c2)cc1C | 18.5 mg/kg |  | AUC [5]: 2.4 µg·h/mL; Cmax [6]: 700 ng/mL; Tmax [7]: 2.25 h
0% |  | CCC(=O)NS(=O)(=O)c1ccc(-n2nc(C(F)(F)F)cc2-c2ccc3c(c2)CCC3)cc1COC(=O)CC [listing 1 of 2 here] |  |  | Activity [8]: inactive; Activity [9]: inactive; Activity [10]: inactive
0% | 75% | CCC(=O)OCc1cc(-n2nc(C(F)F)cc2-c2ccc(OC)c(C)c2)ccc1S(N)(=O)=O | 15 mg/kg |  | 
 |  | Cc1ccc(-c2cc(C(F)(F)F)nn2-c2ccc(S(N)(=O)=O)cc2)cc1 [CELECOXIB] | 6.7 mg/kg |  | 
 |  | CCC(=O)[N-]S(=O)(=O)c1ccc(-n2nc(C(F)(F)F)cc2-c2ccc3c(c2)CCO3)cc1COC(=O)CC.[Na+] |  | 43% | 
5% | 25% | CCC(=O)[N-]S(=O)(=O)c1ccc(-n2nc(C(F)(F)F)cc2-c2ccc3c(c2)CCO3)cc1CO.[Na+] | 7.5 mg/kg |  | 
0% | 61% | CCC(=O)OCc1cc(-n2nc(C(F)(F)F)cc2-c2ccc3c(c2)CCO3)ccc1S(N)(=O)=O | 8.5 mg/kg |  | 
0% | 18% and 25% | CCC(=O)NS(=O)(=O)c1ccc(-n2nc(C(F)(F)F)cc2-c2ccc(SC)cc2)cc1COC(=O)CC [listing 1 of 2 here] |  |  | 
0% | 40% | CCC(=O)OCc1cc(-n2nc(C(F)(F)F)cc2-c2ccc(SC)cc2)ccc1S(N)(=O)=O |  |  | Inhibition [3]: 60%; Activity [8]: inactive; Activity [9]: inactive; Activity [10]: inactive
 |  | CCC(=O)[N-]S(=O)(=O)c1ccc(-n2nc(C(F)(F)F)cc2-c2ccc(OC)c(C)c2)cc1COC(=O)CC.[Na+] |  | 34% | 
 |  | CCC(=O)[N-]S(=O)(=O)c1ccc(-n2nc(C(F)(F)F)cc2-c2ccc3c(c2)CCC3)cc1COC(=O)CC.[Na+] |  | 41% | 
0% | 22% | CCC(=O)[N-]S(=O)(=O)c1ccc(-n2nc(C(F)(F)F)cc2-c2ccc3c(c2)CCC3)cc1CO.[Na+] |  |  | Inhibition [3]: 52%; Activity [8]: inactive; Activity [9]: inactive; Activity [10]: inactive
0% and 1% | 12% and 25% | CCC(=O)NS(=O)(=O)c1ccc(-n2nc(C(F)F)cc2-c2ccc(Br)cc2)cc1COC(=O)CC [listing 1 of 2 here] |  |  | 
 |  | CCC(=O)NS(=O)(=O)c1ccc(-n2nc(C(F)(F)F)cc2-c2ccc(OC)c(C)c2)cc1COC(=O)CC [listing 1 of 2 here] |  | 48% | 
 |  | CCC(=O)NS(=O)(=O)c1ccc(-n2nc(C(F)(F)F)cc2-c2ccc(SC)cc2)cc1COC(=O)CC [listing 2 of 2 here] |  | 38% | 
 |  | NS(=O)(=O)c1ccc(-n2nc(C(F)(F)F)cc2-c2ccc(Br)cc2)cc1CO |  | 35% | 
 |  | NS(=O)(=O)c1ccc(-n2nc(C(F)(F)F)cc2-c2ccc3c(c2)CCO3)cc1CO | 22.3 mg/kg |  | 
 |  | NS(=O)(=O)c1ccc(-n2nc(C(F)F)cc2-c2ccc(Br)cc2)cc1CO |  | 42% | half-life [11]: 7.51 h; AUC [5]: 239 µg·h/mL; AUC(0-inf) [12]: 265 µg·h/mL; Cmax [6]: 20800 ng/mL; Tmax [7]: 2.67 h

inhibition [1] | inhibition [2] | SMILES | ED50 [3] | inhibition at 30 mg/kg [4] | further results
0% | 13% | CCC(=O)[N-]S(=O)(=O)c1ccc(-n2nc(C(F)F)cc2-c2ccc(OC)c(C)c2)cc1CO.[Na+] | 6.3 mg/kg |  | half-life [11]: 5.92 h; AUC [5]: 106 µg·h/mL; AUC(0-inf) [12]: 114 µg·h/mL; Cmax [6]: 7540 ng/mL; Tmax [7]: 2.82 h
 |  | CCC(=O)[N-]S(=O)(=O)c1ccc(-n2nc(C(F)F)cc2-c2ccc(OC)c(C)c2)cc1COC(=O)CC.[Na+] |  | 32% | 
 |  | CCC(=O)[N-]S(=O)(=O)c1ccc(-n2nc(C(F)F)cc2-c2ccc(Br)cc2)cc1COC(=O)CC.[Na+] | 7.9 mg/kg |  | 
 |  | CSc1ccc(-c2cc(C(F)(F)F)nn2-c2ccc(S(N)(=O)=O)c(CO)c2)cc1 |  | 47% | 
 |  | CCC(=O)NS(=O)(=O)c1ccc(-n2nc(C(F)(F)F)cc2-c2ccc(Br)cc2)cc1COC(=O)CC [listing 1 of 2 here] |  | 37% | 
0% | 14% | CCC(=O)[N-]S(=O)(=O)c1ccc(-n2nc(C(F)F)cc2-c2ccc(Br)cc2)cc1CO.[Na+] | 5.6 mg/kg |  | half-life [11]: 7.42 h; AUC [5]: 289 µg·h/mL; AUC(0-inf) [12]: 321 µg·h/mL; Cmax [6]: 28400 ng/mL; Tmax [7]: 2.85 h
0% | 25% and 35% | CCC(=O)NS(=O)(=O)c1ccc(-n2nc(C(F)(F)F)cc2-c2ccc(Br)cc2)cc1COC(=O)CC [listing 2 of 2 here] |  |  | 
5% | 55% | CCC(=O)OCc1cc(-n2nc(C(F)F)cc2-c2ccc(Br)cc2)ccc1S(N)(=O)=O |  | 40% | 
 |  | CCC(=O)NS(=O)(=O)c1ccc(-n2nc(C(F)F)cc2-c2ccc(OC)c(C)c2)cc1COC(=O)CC [listing 1 of 2 here] |  | 42% | 
 |  | CCC(=O)NS(=O)(=O)c1ccc(-n2nc(C(F)F)cc2-c2ccc(Br)cc2)cc1COC(=O)CC [listing 2 of 2 here] |  | 45% | 
12% |  | CCC(=O)OCc1cc(-n2nc(C(F)(F)F)cc2-c2ccc(OC)c(C)c2)ccc1S(N)(=O)=O | 10.9 mg/kg |  | 
 |  | COc1ccc(-c2cc(C(F)(F)F)nn2-c2ccc(S(N)(=O)=O)c(CO)c2)cc1C | 21.7 mg/kg |  | half-life [11]: 6.63 h; AUC [5]: 73.7 µg·h/mL; AUC(0-inf) [12]: 112 µg·h/mL; Cmax [6]: 6370 ng/mL; Tmax [7]: 3.5 h
0% | 21% | CCC(=O)[N-]S(=O)(=O)c1ccc(-n2nc(C(F)(F)F)cc2-c2ccc(SC)cc2)cc1CO.[Na+] |  | 36% | 
 |  | CCC(=O)[N-]S(=O)(=O)c1ccc(-c2c(-c3ccccc3)noc2C)cc1.[Na+] [PARECOXIB SODIUM] |  |  | inhibition at 0.3 mg/kg [13]: 98%
0% | 23% | CCC(=O)[N-]S(=O)(=O)c1ccc(-n2nc(C(F)(F)F)cc2-c2ccc(Br)cc2)cc1CO.[Na+] | 7.2 mg/kg |  | 
0% | 15% | CCC(=O)[N-]S(=O)(=O)c1ccc(-n2nc(C(F)(F)F)cc2-c2ccc(OC)c(C)c2)cc1CO.[Na+] | 6.2 mg/kg |  | half-life [11]: 6.82 h; AUC [5]: 125 µg·h/mL; AUC(0-inf) [12]: 149 µg·h/mL; Cmax [6]: 9320 ng/mL; Tmax [7]: 3.78 h
0% | 10% and 5% | CCC(=O)NS(=O)(=O)c1ccc(-n2nc(C(F)(F)F)cc2-c2ccc(OC)c(C)c2)cc1COC(=O)CC [listing 2 of 2 here] |  |  | 
 |  | CCC(=O)NS(=O)(=O)c1ccc(-n2nc(C(F)(F)F)cc2-c2ccc3c(c2)CCC3)cc1COC(=O)CC [listing 2 of 2 here] |  |  | Inhibition [3]: 64%
 |  | CCC(=O)[N-]S(=O)(=O)c1ccc(-n2nc(C(F)(F)F)cc2-c2ccc(SC)cc2)cc1COC(=O)CC.[Na+] |  | 40% | 
0% | 57% | CCC(=O)OCc1cc(-n2nc(C(F)(F)F)cc2-c2ccc3c(c2)CCC3)ccc1S(N)(=O)=O |  | 30% | 
 |  | CCC(=O)[N-]S(=O)(=O)c1ccc(-n2nc(C(F)(F)F)cc2-c2ccc(Br)cc2)cc1COC(=O)CC.[Na+] | 12.5 mg/kg |  | 
0% |  | CCC(=O)NS(=O)(=O)c1ccc(-n2nc(C(F)F)cc2-c2ccc(OC)c(C)c2)cc1COC(=O)CC [listing 2 of 2 here] |  |  | 
